Test results reported in patent US20130287807A1, “COMPOUNDS FOR TREATING SYMPTOMS ASSOCIATED WITH PARKINSON'S DISEASE” (priority 2008, published 2013).
Ends that are not written are not given here.

Tested on: monoclonal antibody (DAEFRH-peptide-specific)
Assay: Inhibition assay (ELISA): mimotope peptides compete with plate-bound original epitope DAEFRH for recognition by the monoclonal antibody
Format: binding, Mice
Set-up: key to inhibition (s/m/—): s: strong inhibition; m: moderate inhibition; —: -: no inhibition
Conditions: competition ELISA, plate-bound DAEFRH-C-BSA; text to FIGS. 2-9
From the text: Mice are vaccinated with the 6mer peptide DAEFRH (natural N-terminal Aβ42 sequence) linked to the protein bovine serum albumin BSA (to make use of the hapten-carrier-effect), emulsified in CFA (first injection) and IFA (booster injections). DAEFRH-peptide-specific, antibody-producing hybridomas are detected by ELISA (DAEFRH-peptide-coated ELISA plates).
FIGS. 2 and 3 describe the results of inhibition assays performed with mimotope peptides included in and obtained from the 5 libraries (as described in WO 2004/062556). The mimotope peptides compete with the original epitope for recognition by the monoclonal antibody. Original epitope and mimotope peptides contain an additional C at the C-terminus for coupling to a protein carrier (if desired).
(§1) After blocking with PBS/BSA 1% (200 μl/well, 12 h, 4° C.), the plates are washed 3× times with PBS/Tween. Then, biotinylated monoclonal antibody (1:2000, 50 μl/well) and peptides (50 μl/well) at 50, 5, 0.5, 0.05, 0.005, and 0.0005 μg/ml are added for 20 min. at 37° C. The plates are washed 3× times with PBS/Tween and are incubated with horseradish peroxidase (HRP)-labeled streptavidin (100 μl/well, 30 min, RT). The plates are washed 5× times with PBS/Tween and are incubated with ABTS+H2O2(0.1% w/v, 10 to 45 min) and the reaction is stopped with citric acid followed by photometric evaluation (wavelength 405 nm).
as §1, with “different concentrations” for “50, 5, 0.5, 0.05, 0.005, and 0.0005 μg/ml”, “ABTS+H2O2 (0.1%” for “ABTS+H2O2(0.1%”
as §1, with “different concentrations” for “50, 5, 0.5, 0.05, 0.005, and 0.0005 μg/ml”

Row | inhibition of binding of the monoclonal antibody to the original epitope | Molecule
1 | block epitope recognition | CC[C@H](C)[C@H](NC(=O)[C@H](CCCNC(=N)N)NC(=O)[C@H](CC(C)C)NC(=O)[C@H](CCC(=O)O)NC(=O)[C@H](Cc1c[nH]c2ccccc12)NC(=O)[C@@H](N)CC(=O)O)C(=O)N[C@@H](CS)C(=O)O [Peptide 3002, DWELRI]
2 | strongly block epitope recognition | SWEFRNP [Peptide 4017]
3 | strongly block epitope recognition | SWEFRLY [Peptide 4018]
4 | not inhibitory | ATYAYWN [Peptide 4038]
5 | moderately inhibit | GSEFRDY [Peptide 4013]
6 | block epitope recognition | CC[C@H](C)[C@H](NC(=O)[C@H](CCCNC(=N)N)NC(=O)[C@H](CC(C)C)NC(=O)[C@H](CCC(=O)O)NC(=O)[C@H](CCCNC(=N)N)NC(=O)[C@@H](N)CC(=O)O)C(=O)N[C@@H](CS)C(=O)O [Peptide 1235, DRELRI]
7 | strongly block epitope recognition | DAEFRWP [Peptide 4011]
8 | not inhibitory | SWFRNP [Peptide 4019]

Same assay, conditions: peptide lists of Example 4

Row | Molecule | inhibition (s/m/—)
9 | SWEFRNP [Peptide 4017] | s
10 | SWEFRLY [Peptide 4018] | s
11 | ATYAYWN [Peptide 4038] | —
12 | GSEFRDY [Peptide 4013] | m
13 | DAEFRWP [Peptide 4011] | s
14 | SWFRNP [Peptide 4019] | —

Same assay, conditions: summary Tables 1 and 2 (Examples 2, 3)

Row | Molecule | Inhibitory capacity of mimotopes
15 | CC[C@H](C)[C@H](NC(=O)[C@H](CCCNC(=N)N)NC(=O)[C@H](CC(C)C)NC(=O)[C@H](CCC(=O)O)NC(=O)[C@H](Cc1c[nH]c2ccccc12)NC(=O)[C@@H](N)CC(=O)O)C(=O)N[C@@H](CS)C(=O)O [Peptide 3002, DWELRI] | intermediate
16 | CC[C@H](C)[C@H](NC(=O)[C@H](CCCNC(=N)N)NC(=O)[C@H](CC(C)C)NC(=O)[C@H](CCC(=O)O)NC(=O)[C@H](CCCNC(=N)N)NC(=O)[C@@H](N)CC(=O)O)C(=O)N[C@@H](CS)C(=O)O [Peptide 1235, DRELRI] | strong
17 | N=C(N)NCCC[C@H](NC(=O)[C@H](Cc1ccccc1)NC(=O)[C@H](CCC(=O)O)NC(=O)[C@H](Cc1ccccc1)NC(=O)[C@@H](N)CO)C(=O)NCC(=O)N[C@@H](CS)C(=O)O [Peptide 3009, SFEFRG] | weak

Tested on: monoclonal antibody MV-002
Assay: In vitro binding assay (ELISA), BSA-coupled peptides, parental antibody MV-002
Set-up: species or system C57/B16 mice
Conditions: Table 1 (MV-002); peptide-BSA on plate, compared to original epitope
Experimental: Peptides derived from Phage Display as well as variants thereof were coupled to BSA and bound to ELISA plates (1 μM; as indicated in the respective figures) and subsequently incubated with the monoclonal antibody that was used for the screening procedure to analyse binding capacity of identified peptides.
Legend to Table 1: the binding capacity is coded by the following binding code: 1:X describes the dilution factor of the parental AB. Ac- . . . indicates acetylated AA.

Row | Binding Capacity | Molecule
18 | 1 (weak binding :<40000) | CGEIYFER [p4807]
19 | 3 (strong binding :>320000) | GQIKFAQC [p4694]
20 | 3 (strong binding :>320000) | GEIRFALC [p4678]
21 | 3 (strong binding :>320000) | GMIVFPHC [p4679]
22 | 3 (strong binding :>320000) | HMRMYFEC [p4687]
23 | 3 (strong binding :>320000) | GELYFRAC [p4677]
24 | 2 (medium binding :40000-320000) | GEIRFELC [p4796]
25 | 3 (strong binding :>320000) | GQIRFDHC [p4669]
26 | 2 (medium binding :40000-320000) | Ac-GEIYFERC [p4804]
27 | 3 (strong binding :>320000) | GELQFPPC [p4672]
28 | 3 (strong binding :>320000) | GQLKFPFC [p4690]
29 | 2 (medium binding :40000-320000) | GELFFEKC [p4795]
30 | 3 (strong binding :>320000) | GQIQFPLC [p4697]
31 | 2 (medium binding :40000-320000) | GSLFFWPC [p4688]
32 | 2 (medium binding :40000-320000) | GTLIFHHC [p4695]
33 | 3 (strong binding :>320000) | GEMQFFIC [p4676]
34 | 2 (medium binding :40000-320000) | GQIIFQSC [p4668]
35 | 1 (weak binding :<40000) | AIPLFVMC [p4682]
36 | 3 (strong binding :>320000) | GDLKFPLC [p4683]
37 | 1 (weak binding :<40000) | SGEIYFERC [p4805]
38 | 1 (weak binding :<40000) | AGEIYFERC [p4806]
39 | 1 (weak binding :<40000) | GTIFFRDC [p4692]
40 | 1 (weak binding :<40000) | GQIWFISC [p4666]
41 | 3 (strong binding :>320000) | GQIMFPRC [p4686]
42 | 3 (strong binding :>320000) | GQILFPVC [p4684]
43 | 3 (strong binding :>320000) | GEMWFALC [p4671]
44 | 3 (strong binding :>320000) | GELFFPKC [p4685]
45 | 1 (weak binding :<40000) | KLPLFVMC [p4691]
46 | 1 (weak binding :<40000) | QLPLFVLC [p4700]

Target: monoclonal antibody MV-001
Assay: ELISA on peptide-BSA; code 3 = strong binding, OD halfmax 1:>20000
Conditions: not given

Row | OD halfmax 1:X (dilution factor of the parental antibody at half-maximal OD) (dilutionfactor(1:x)) | Molecule
47 | > 20000 | QLFKHSPC [p4747]
48 | > 20000 | APIQFRHC [p4750]
49 | > 20000 | SAGSFRHC [p4710]
50 | > 20000 | EFLRHTLC [p4722]
51 | > 20000 | YEFRHAQC [p4748]
52 | > 20000 | SNFRHSVC [p4749]
53 | > 20000 | THMEFRRC [p4745]
54 | > 20000 | ATPLFRHC [p4723]
55 | > 20000 | SEFSHSSC [p4712]
56 | > 20000 | ELFKHHLC [p4714]
57 | > 20000 | SQSYFKHC [p4755]
58 | > 20000 | SNSEFRRC [p4743]
59 | > 20000 | SELRHSTC [p4744]
60 | > 20000 | NELRHSTC [p4701]
61 | > 20000 | GEMRHQPC [p4702]
62 | > 20000 | LHIPFRHC [p4726]
63 | > 20000 | NSSELRHC [p4752]

Target: monoclonal antibody MV-001
Assay: ELISA on peptide-BSA; code 2 = medium binding, OD halfmax 1:4000-20000
Conditions: not given

Row | OD halfmax 1:X (dilution factor of the parental antibody at half-maximal OD) (dilutionfactor(1:x)) | Molecule
64 | 4000 to 20000 | VELRHSRC [p4704]
65 | 4000 to 20000 | SSSFFPRC [p4708]
66 | 4000 to 20000 | AANYFPRC [p4706]
67 | 4000 to 20000 | DTYFPRSC [p4703]
68 | 4000 to 20000 | YSMRHDAC [p4705]
